Results reported in patent US10633547B2, “Method for reducing microbial attack of industrial products” (Thor GmbH, priority 2016, dated 2020).

Columns and labels:
[1] = test system: newly introduced microorganisms; assay: shelf life of dispersion paint after post-preservation; details: 50 ppm 2-methyl-1,2-benzisothiazolin-3-one and 10 ppm zinc oxide added after decomposition of CMIT by cysteine
Protocol: The paint produced in this manner was now free of microorganisms through the use of the effective broad-spectrum biocide 5-chloro-2-methylisothiazolin-3-one, but susceptible to newly introduced microorganisms, which can infiltrate the paint during storage, due to the decomposition of the biocide by cysteine.
In order to protect the paint from such a microbial attack during storage, 50 ppm 2-methyl-1,2-benzisothiazolin-3-one and 10 ppm zinc oxide, based on the dispersion paint, were added to the dispersion paint for post-preservation.

[2] = decomposition of 2-methylisothiazolin-3-one in aqueous dispersion paint using sodium thiosulfate; type: physicochemical
Description: However, it is disadvantageous that, according to the described method, said isothiazolinones, particularly MIT, are not quantitatively and/or irreversibly destroyed, as a result of which they are still contained in the products and reaction products and still can cause problems for people prone to allergic reactions, and/or cause contact dermatitis or aerogenic contact dermatitis in highly sensitive people.

[3] = decomposition of 5-chloro-2-methylisothiazolin-3-one in dispersion paint by cysteine, HPLC; type: physicochemical; details: 3 hours after adding 50 ppm cysteine, based on the dispersion paint
Description: In order to produce a paint, which is harmless for allergy suffers with respect to the 5-chloro-2-methylisothiazolin-3-one and 2-methylisothiazolin-3-one, from the dispersion paint, which contained significant quantities of 5-chloro-2-methylisothiazolin-3-one, these isothiazolin-3-ones were decomposed by adding 50 ppm cysteine, based on the dispersion paint.

[4] = test system: microorganisms introduced by the individual components of the paint; assay: microbiological testing of dispersion paint preserved with 5-chloro-2-methylisothiazolin-3-one; type: cell-based; details: 20 ppm 5-chloro-2-methylisothiazolin-3-one with <1 wt % 2-methylisothiazolin-3-one; water-based dispersion paint; growth detectable in individual components
Protocol: 20 ppm 5-chloro-2-methylisothiazolin-3-one, with a content of 2-methylisothiazolin-3-one of <1 wt %, was added to a preservative-free styrene acrylate dispersion. The styrene acrylate dispersion preserved in this manner was then used to produce a water-based dispersion paint. The paint produced had the following composition: • 25.7 wt % water • 0.2 wt % acrylate-based wetting and dispersion agents • 0.2 wt % mineral oil-based defoamer • 2.0 wt % water softener (sodium polyphosphate) • 0.2 wt % ammonia • 4.0 wt % titanium oxide (pigment) • 51.0 wt % calcium carbonate (filler) • 5.0 wt % talcum (filler) • 0.4 wt % cellulose ether • 2.0 wt % organic solvent for lowering the minimum film-forming temperature • 9.0 wt % of the styrene acrylate dispersion preserved with 20 ppm 5-chloro-2-methylisothiazolin-3-one • 20 ppm 5-chloro-2-methylisothiazolin-3-one, with a content of 2-methylisothiazolin-3-one of <1 wt %

Compound: Cn1sc2ccccc2c1=O [2-methyl-1,2-benzisothiazolin-3-one]
- shelf life of the paint [1]: at least 6 months

Compound: Cn1sccc1=O [2-methylisothiazolin-3-one]
- destruction of 2-methylisothiazolin-3-one using sodium thiosulfate [2]: could not be quantitatively or irreversibly destroyed

Compound: Cn1sc(Cl)cc1=O [5-chloro-2-methylisothiazolin-3-one]
- 5-chloro-2-methylisothiazolin-3-one detectable in the dispersion paint by HPLC [3]: no more 5-chloro-2-methylisothiazolin-3-one was detectable
- microbial growth in the dispersion paint [4]: no microbial growth was found
